Converted amounts (≈) assume the structure as drawn.
Key:
[1] = Metabolic stability of the compound in plasma (unknown origin) assessed as compound remaining at 10 uM after 60 mins; type: ADME, cell-free; conditions: read-out: Stability
MDCK = experiment: Permeability from apical to basolateral side in MDCK cells expressing human MDR1 at 10 uM after 1 hr by chromatography analysis; type: ADME, cell-based, Canis lupus familiaris; conditions: dog
[2] = Permeability of the compound at pH 5.5 at 10 uM by PAMPA; type: physicochemical; conditions: pH 5.5, 10 µM
[3] = Permeability of the compound at pH 7.4 at 10 uM by PAMPA; type: physicochemical; conditions: pH 7.4, 10 µM
[4] = Metabolic stability of the compound in hepatic S9 fraction (unknown origin) assessed as compound remaining at 10 uM after 60 mins; type: ADME, tissue-based, Liver; conditions: read-out: Stability
[5] = Solubility of the compound in 10 mM phosphate buffer at pH 3 after 90 mins by LC/MS analysis; type: physicochemical
[6] = target: T1, Voltage-gated inwardly rectifying potassium channel KCNH2 (Homo sapiens, UniProt Q12809)
Description: (§1) Displacement of [3H]-astemizole from human ERG

[7] = Solubility of the compound in 10 mM phosphate buffer at pH 7.4 after 90 mins by LC/MS analysis; type: physicochemical
[8] = target: T1, Voltage-gated inwardly rectifying potassium channel KCNH2; remark: listed apart in the source
Description: as §1

[9] = target: Delta-type opioid receptor (Homo sapiens) (UniProt P41143)
Chain of Delta-type opioid receptor (Homo sapiens) (P41143 whole entry): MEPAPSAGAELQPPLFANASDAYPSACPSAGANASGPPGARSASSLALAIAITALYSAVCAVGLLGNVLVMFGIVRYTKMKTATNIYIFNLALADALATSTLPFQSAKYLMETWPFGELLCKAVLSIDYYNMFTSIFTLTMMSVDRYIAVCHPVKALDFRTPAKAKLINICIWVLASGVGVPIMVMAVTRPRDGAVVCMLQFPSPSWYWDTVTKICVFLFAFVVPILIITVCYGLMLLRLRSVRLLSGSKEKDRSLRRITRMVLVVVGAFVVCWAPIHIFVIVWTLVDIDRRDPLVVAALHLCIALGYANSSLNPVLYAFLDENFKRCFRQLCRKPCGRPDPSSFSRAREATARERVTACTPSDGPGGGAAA
Description: Antagonist activity at cloned human delta opioid receptor assessed as inhibition of DPDPE-induced [35S]GTPgammaS binding

T1 sequence (Q12809 whole entry): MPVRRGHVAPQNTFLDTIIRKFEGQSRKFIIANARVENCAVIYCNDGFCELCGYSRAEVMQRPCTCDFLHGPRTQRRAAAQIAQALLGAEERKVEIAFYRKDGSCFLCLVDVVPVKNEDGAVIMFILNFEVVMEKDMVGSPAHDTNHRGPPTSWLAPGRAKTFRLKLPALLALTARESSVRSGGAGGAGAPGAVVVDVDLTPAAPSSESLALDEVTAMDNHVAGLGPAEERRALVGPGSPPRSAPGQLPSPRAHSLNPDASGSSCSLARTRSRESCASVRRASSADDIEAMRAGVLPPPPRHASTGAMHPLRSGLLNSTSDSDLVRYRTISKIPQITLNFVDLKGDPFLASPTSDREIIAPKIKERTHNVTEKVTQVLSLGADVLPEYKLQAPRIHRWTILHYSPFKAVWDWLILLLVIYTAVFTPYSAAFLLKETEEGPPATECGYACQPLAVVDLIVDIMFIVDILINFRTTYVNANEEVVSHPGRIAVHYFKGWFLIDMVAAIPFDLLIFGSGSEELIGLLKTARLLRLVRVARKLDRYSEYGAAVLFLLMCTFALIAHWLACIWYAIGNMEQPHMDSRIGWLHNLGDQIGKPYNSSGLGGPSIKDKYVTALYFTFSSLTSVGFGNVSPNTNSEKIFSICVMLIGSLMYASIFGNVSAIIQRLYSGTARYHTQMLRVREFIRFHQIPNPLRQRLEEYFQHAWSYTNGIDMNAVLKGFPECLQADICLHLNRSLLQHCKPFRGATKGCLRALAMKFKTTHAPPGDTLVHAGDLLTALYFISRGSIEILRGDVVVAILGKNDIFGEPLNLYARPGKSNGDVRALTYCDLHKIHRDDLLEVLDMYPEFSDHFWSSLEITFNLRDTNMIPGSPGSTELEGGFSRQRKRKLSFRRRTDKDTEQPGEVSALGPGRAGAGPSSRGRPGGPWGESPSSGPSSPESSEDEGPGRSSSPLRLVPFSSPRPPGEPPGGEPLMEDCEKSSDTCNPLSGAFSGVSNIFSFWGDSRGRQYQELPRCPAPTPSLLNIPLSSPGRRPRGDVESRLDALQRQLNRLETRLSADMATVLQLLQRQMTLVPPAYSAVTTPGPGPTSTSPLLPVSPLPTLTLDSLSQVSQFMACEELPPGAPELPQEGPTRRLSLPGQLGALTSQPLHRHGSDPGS

Compound	remaining at 1 h, 10 µM [1] [%]	permeability (MDCK) [%]	permeability [2] [%]	permeability [3] [%]	remaining at 1 h, 10 µM [4] [%]	solubility [5] [µM]	Ki [6] [µM]	solubility [7] [µM]	Ki [8] [µM]	Ke [9] [nM]
CC(C)[C@@H](CN1CC[C@@](C)(c2ccccc2)[C@@H](C)C1)NC(=O)[C@H]1Cc2ccc(O)cc2CN1	67	27	67.3	91.4	82	42 (≈ 18.9 µg/mL)	7.05	11 (≈ 4.95 µg/mL)	–	–
CC(C)[C@@H](CN1CCC(c2ccccc2)CC1)NC(=O)[C@H]1Cc2ccc(O)cc2CN1	–	–	–	–	–	–	–	–	0.777	281
CC(C)[C@@H](CN1CCC(c2cccc(F)c2)CC1)NC(=O)[C@H]1Cc2ccc(O)cc2CN1	–	–	–	–	–	–	–	–	0.436	–
CC(C)[C@@H](CN1CC[C@@](C)(c2cccc(O)c2)[C@@H](C)C1)NC(=O)[C@H]1Cc2ccc(O)cc2CN1 [JDTIC]	97	11	57.9	–	76	34 (≈ 15.8 µg/mL)	8.82	11 (≈ 5.12 µg/mL)	–	–
CC(C)[C@@H](CN1CCC(C)(c2cccc(F)c2)CC1)NC(=O)[C@H]1Cc2ccc(O)cc2CN1	–	1.3	–	–	–	–	–	–	4.24	–

Source: ChEMBL document CHEMBL3612054 (Bioorg Med Chem, 2015)
